Data from patent publication US12351565B2, “Aromatic compound and preparation method therefor and use thereof” (SHANGHAI JIANHE PHARMACEUTICAL & TECHNOLOGY CO. LTD., priority 2018, dated 2025).
Where two headings read alike, the source gives them in different places.

Tests used:
[1] = in mice, background statement; cited from earlier work
C57 mice [2] = test: Forced swimming experiment, intraperitoneal administration to mice; format: in vivo; conditions: for inhibition in vivo at 10 mg/kg: Mus musculus, ip; for 1 h inhibition rate: forced swimming 1 h after single intraperitoneal 10 mg/kg
Procedure: The forced-swimming test is currently the most widely used classic method to evaluate the antidepressant effects of compounds in rodents. […] The time in immobile state of experimental animal is observed and recorded, which can be used to evaluate the effect of antidepressant compounds.
1 h and 24 h after a single intraperitoneal administration of 10 mg/kg, forced swimming tests were respectively carried out to investigate the effects of different compounds on depression-like behaviors of C57 mice.
(§1) Experimental animals were 6-week aged C57 mice, male, and C57 mice were purchased from Shanghai SLAC Laboratory Animal Co., Ltd., with a body weight of 20.45±0.19 g. Before the experiment, they arrived at the Animal Feeding Center of Shanghai Institute of Materia Medica, Chinese Academy of Sciences (Animal Production License: SCXK9[Shanghai]2004-0002, usage license: SYXK[Shanghai]2003-0029), and adapted for 3 days or more in animal facilities. They were bred at 6 animals/cage. The breeding environment was room temperature 23±0.2° C., with 12/12 hours alternation of day and night. Before the behavioral test, the animals should be moved to the behavioral test operation room 2 hours in advance to adapt to the environment and reduce their tension.
Preparation of the test product: each test compound was accurately weighed and dissolved in 0.9% NaCl solution, mixed thoroughly, and prepared as a 1 mg/ml solution, set aside.
(§2) 24 hours before the administration, the mice were placed in a cylindrical tank to adapt to the aquatic environment for 10 min. On the day of the behavioral test, the animals were respectively administered intraperitoneally once at 1 h and 24 h before the behavioral test. The mice were placed individually into a cylindrical glass tank with a height of 30 cm and a diameter of 20 cm. The water depth in the tank was 15 cm, so that the animals could not escape from the glass tank and their feet and tails could not touch the bottom of the tank, the water temperature was 23° C.-25° C. A 6 minute video was taken after the mouse entered into water. Since most animals were very active in the first two minutes, the immobility time in the following 4 minute were calculated (criterion of immobility: the mouse stops struggling in the water, stays still and has small limbs movement to maintain balance or to keep a floating state).
(§3) The antidepressant effect of a compound was evaluated by the ability of the compound to reduce the immobility time of the animal in the forced swimming test as compared with the blank group. The shorter the immobility time of the animal to be tested, the higher the inhibition rate and the stronger the antidepressant activity. Inhibition rate1 h(%)=immobility time(blank, 1 h)−immobility time(administration, 1 h)/immobility time(blank, 1 h)×100% Inhibition rate24 h(%)=immobility time(blank, 24 h)−immobility time(administration, 24 h)/immobility time(blank, 24 h)×100%

[3] = rats, literature (Journal of Psychopharmacology, 2019, 33, 12-24), cited from earlier work
C57 mice [4] = test: Forced swimming experiment, oral administration to mice; format: in vivo; conditions: C57 mice
Procedure: 1 h and 24 h after a single oral administration of 20 mg/kg, forced swimming experiments were then carried out to investigate the effects of different compounds on depression-like behavior in C57 mice.
as §1, with “male,” for “male, and”
Preparation of the test product: each test compound was accurately weighed and dissolved in 0.9% NaCl solution, mixed thoroughly, and prepared into 1 mg/ml and 2 mg/ml solutions respectively, and set aside.
as §2, with “intragastrically” for “intraperitoneally”
as §3, with “group.” for “group. The shorter the immobility time of the animal to be tested, the higher the inhibition rate and the stronger the antidepressant activity.”, “rate24h(%)=immobility” for “rate24 h(%)=immobility”

[5] = In vivo pharmacokinetic experiment in mice; conditions: C57 mice; for AUC0-t / AUC0-∞ / MRT / half-life / clearance / Vd / Cmax / Tmax: plasma; for F: 20 mg/kg p.o. vs 5 mg/kg i.v.; for MRT / half-life / clearance / Vd / Cmax / Tmax: male, mouse; for Vd: read-out: Vss
Procedure: Healthy male C57 mice were randomly divided into groups with 3 mice in each group, and the test compounds were administrated intragastrically or by intravenous injection. See Table 6 below for specific arrangements:
(§4) Each test compound was dissolved in physiological saline to prepare a certain concentration of solution for administration.
(§5) One day before administration, the mice were fasted and allowed to drink freely for 12-14 h. The mice were fed 4 h after administration.
0.030 mL of blood was took from each animal each time through the orbit, and anticoagulated with EDTAK2. The collection time points were as follows: in PO group, 5 min, 15 min, 30 min, 1 h, 2 h, 4 h, 6 h, 8 h, 24 h after administration of test substance; in IV group, 2 min, 5 min, 15 min, 30 min, 1 h, 2 h, 4 h, 6 h, 8 h, 24 h after administration of test substance. After blood samples were collected, they were placed on ice and centrifuged to separate the plasma within 30 minutes (centrifugation conditions: 5000 rpm, 10 minutes, 4° C.). The sample were stored at −80° C. before analysis.

[6] = cited from earlier work
hERG potassium channel = target: T1, hERG potassium channel (Homo sapiens, UniProt Q12809); test: hERG potassium channel inhibition experiment (automatic patch clamp, CHO-hERG cells); format: cell-based; conditions: Qpatch, highest tested concentration 40 μM, read-out: IC50, blocking effect on the hERG potassium current
T1 construct: expressed in transfected cells
Procedure: Fully automatic patch clamps were used to test the blocking effect of the compounds of the present invention on the hERG potassium current on a stable cell line transfected with hERG potassium channels.
CHO-hERG cells were cultured in 175 cm^2 culture flask. When the cell grew to 60-80% confluence, the culture medium was removed. The cells were washed with 7 ml PBS (Phosphate Buffered Saline) once, and then 3 ml Detachin was added to digest.
After the digestion was completed, 7 ml culture medium was added to neutralize. The mixture was centrifuged, and after the supernatant was removed, 5 ml culture medium was added to resuspend to ensure the cell density was 2×10^6-5×10^6/ml.
Single-cell high-impedance sealing and whole-cell mode formation were all automatically completed by using the Qpatch instrument. After the recording mode was obtained, the cell was clamped at −80 millivolts. Before +40 millivolt depolarization stimulation for 5 seconds was given, −50 millivolt pre-voltage for 50 millisecond was first given, then repolarized to −50 millivolt for 5 seconds, and then returned to −80 millivolt. This voltage stimulus was applied every 15 seconds. After recording for 2 min, extracellular fluid was given, and recording was conducted for 5 min, and then the dosing process started. The compound concentration started from the lowest test concentration, and each test concentration was given for 2.5 min. […] At least 3 cells per concentration (n≥3) were tested.
20 mM compound mother liquor was diluted with extracellular fluid. 5 μL of 20 mM compound mother liquor was taken and added into 2495 μL extracellular fluid, so that it was diluted 500 times to 40 μM, and was then serially diluted 3 times in an extracellular fluid containing 0.2% DMSO to obtain the final concentration to be tested.
The highest tested concentration was 40 μM, and the concentrations were in order as follows: 40, 13.33, 4.44, 1.48, 0.49, 0.16 μM, totally 6 concentrations.
Experimental data were analyzed by XLFit software.

[7] = Distribution in mouse brain tissue; format: in vivo, C57 mice; conditions: male, brain, po; C57 mouse, 10 mg/kg p.o., 30 min
Procedure: Healthy male C57 mice were randomly divided into groups with 3 mice in each group, and the test compound was administrated intragastrically. See Table 10 below for specific arrangements:
as §4, §5
After the animals were bled, the brain tissue was collected. After washing, 50% ice methanol was added for homogenate at 1:4 (m/v). The collection time points was 10 min, 15 min, 30 min, 1 h, 2 h after administration of the test substance; 30.0 μL of tissue sample was taken (the sample was taken out from the refrigerator at −80° C., vortexed for 30 seconds after natural melting at room temperature) and added into a 1.5 mL centrifuge tube. 300.0 μL internal standard solution (30 ng/mL […] acetonitrile solution) was added, the mixture was vortex for 60 seconds and then centrifuged for 3 minutes (centrifugal force was 12000 rpm); 75 μL of the supernatant was taken and transferred to 96-well injection plate loaded with equal volume of water, shaken and mixed well, and subjected to LC-MS/MS analysis, wherein injection volume was 10 μL.

[8] = 1 h, read-out: 1 h inhibition rate
[9] = 24 h, read-out: 24 h inhibition rate
[10] = inhibition of immobility time, C57 mice
[11] = inhibition of immobility time, forced swimming 1 h after single oral (intragastric) 20 mg/kg
[12] = inhibition of immobility time, forced swimming 24 h after single oral (intragastric) 20 mg/kg
[13] = brain tissue, 50 mg/kg p.o., literature (Journal of Psychopharmacology, 2019, 33, 12-24)

T1 sequence (Q12809 whole entry): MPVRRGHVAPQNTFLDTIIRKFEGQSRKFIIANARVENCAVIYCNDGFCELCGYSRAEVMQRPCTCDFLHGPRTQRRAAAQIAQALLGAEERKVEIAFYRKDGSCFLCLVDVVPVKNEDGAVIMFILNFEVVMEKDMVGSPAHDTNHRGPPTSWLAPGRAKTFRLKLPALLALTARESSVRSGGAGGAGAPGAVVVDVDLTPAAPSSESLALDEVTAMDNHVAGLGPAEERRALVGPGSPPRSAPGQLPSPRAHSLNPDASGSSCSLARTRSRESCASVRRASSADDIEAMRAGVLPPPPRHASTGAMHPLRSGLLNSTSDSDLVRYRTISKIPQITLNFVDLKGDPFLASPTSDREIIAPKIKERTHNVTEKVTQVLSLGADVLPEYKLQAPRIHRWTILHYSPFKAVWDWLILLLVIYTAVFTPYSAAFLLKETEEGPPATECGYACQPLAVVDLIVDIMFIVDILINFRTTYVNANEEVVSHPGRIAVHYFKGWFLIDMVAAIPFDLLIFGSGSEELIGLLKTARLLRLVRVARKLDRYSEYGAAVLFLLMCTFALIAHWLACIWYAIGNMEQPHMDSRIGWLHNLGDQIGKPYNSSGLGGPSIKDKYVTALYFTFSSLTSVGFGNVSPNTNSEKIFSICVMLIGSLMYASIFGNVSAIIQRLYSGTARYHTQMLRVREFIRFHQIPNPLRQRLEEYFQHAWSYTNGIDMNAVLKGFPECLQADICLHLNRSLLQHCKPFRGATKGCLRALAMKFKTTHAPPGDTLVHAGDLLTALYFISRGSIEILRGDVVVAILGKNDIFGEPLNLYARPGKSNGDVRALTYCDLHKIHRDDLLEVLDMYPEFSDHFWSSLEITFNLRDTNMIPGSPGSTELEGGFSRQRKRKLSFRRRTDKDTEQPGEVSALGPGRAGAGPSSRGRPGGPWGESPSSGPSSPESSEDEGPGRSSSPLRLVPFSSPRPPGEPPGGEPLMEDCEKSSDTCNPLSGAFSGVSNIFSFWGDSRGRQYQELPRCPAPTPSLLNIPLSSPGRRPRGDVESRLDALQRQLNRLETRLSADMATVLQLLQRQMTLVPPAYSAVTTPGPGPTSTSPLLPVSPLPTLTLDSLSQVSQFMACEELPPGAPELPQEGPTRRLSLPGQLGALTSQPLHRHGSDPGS

SMILES | inhibition in vivo at 10 mg/kg (C57 mice [2]; [8]) [%] | inhibition in vivo at 10 mg/kg (C57 mice [2]; [9]) [%] | 1 h inhibition rate (C57 mice [2]; [10]) [%] | 1 h inhibition rate (C57 mice [4]; [11]) [%] | 24 h inhibition rate (C57 mice [4]; [12]) [%] | AUC0-t ([5]; 5 mg/kg i.v.) [ngh/mL] | AUC0-∞ ([5]; 5 mg/kg i.v.) [ngh/mL] | F [5] [%] | AUC0-t ([5]; 20 mg/kg p.o.) [ngh/mL] | AUC0-∞ ([5]; 20 mg/kg p.o.) [ngh/mL] | MRT ([5]; iv, 5 mg/kg i.v.) [min] | half-life ([5]; iv, 5 mg/kg i.v.) [min] | clearance ([5]; iv, 5 mg/kg i.v.) [mL/min/kg] | Vd ([5]; iv, 5 mg/kg i.v.) [L/kg] | Cmax ([5]; po, 20 mg/kg p.o.) [ng/mL] | MRT ([5]; po, 20 mg/kg p.o.) [min] | Tmax ([5]; po, 20 mg/kg p.o.) [min] | half-life ([5]; po, 20 mg/kg p.o.) [min] | IC50 (hERG potassium channel) [µM] | other results
Cl.N[C@@]1(c2ccccc2Cl)CCC[C@@H](O)C1=O [(2R,6R)-HNK, (2R, 6R)-HNK, reference compound] | 31.1 | 27.4 | 31.1 ± 4.0 | 18.4 ± 1.6 | 19.6 ± 4.4 | 2085 | 2096 | 66.8 | 5589 | 5599 | 23.4 | 20.4 | 40.7 | 0.94 | 7180 | 52.5 | 5 | 55.8 | – | T1/2 [1]: < 60 min; 24 h inhibition rate (C57 mice [2]; inhibition of immobility time, forced swimming 24 h after single intraperitoneal 10 mg/kg, C57 mice): 27.4 ± 3.9%; AUC0-∞ ([3]; 10 mg/kg i.v.): 6270 ngh/mL; CL ([3]; 10 mg/kg i.v.): 27 mL/min/kg; T1/2 ([3]; 10 mg/kg i.v.): 480 min; Vss ([3]; 10 mg/kg i.v.): 7.5 L/kg; AUC0-∞ ([3]; 10 mg/kg p.o.): 2650 ngh/mL; Cmax ([3]; 10 mg/kg p.o.): 1500 ng/mL; F ([3]; 10 mg/kg p.o.): 42%; T1/2 ([3]; 10 mg/kg p.o.): 414 min; Tmax ([3]; 10 mg/kg p.o.): 10 min; Brain tissue concentration ([6]; 10 mg/kg intraperitoneally, literature (Nature, 2016, 533, 481-486; Nature, 2017, 546, E1-E5)): 2562 ng/g; Brain tissue concentration ([6]; 50 mg/kg p.o., 10 min, literature (Journal of Psychopharmacology, 2019, 33, 12-24)): 6490 to 8600 ng/g; AUC0-∞ [6, 13]: 2850 to 5190 ng·h/g; T1/2 [6, 13]: 42 min
Cl.NC1(c2ccc(C(F)(F)F)cc2)CCCC(O)C1=O (stereo not shown) [Compound 46, 2-amino-6-hydroxy-2-(4-(trifluoromethyl)phenyl)cyclohexane-1-one hydrochloride] | 34.7 ± 4.1 | 43.5 | – | 31.2 ± 4.7 | 32.3 ± 1.5 | – | – | – | – | – | – | – | – | – | – | – | – | – | > 40 | –
Cl.N[C@@]1(c2cccc(OC(F)(F)F)c2F)CCC[C@@H](O)C1=O [Compound 64, (2R,6R)-2-amino-2-(2-fluoro-3-(trifluoromethoxy)phenyl)-6-hydroxycyclohexane-1-one hydrochloride] | – | – | – | 36.5 ± 5.3 | 34.5 ± 1.0 | 4817 | 4838 | 66.2 | 12708 | 12816 | 52.8 | 52.2 | 17.2 | 0.91 | 11900 | 125 | 5 | 239 | > 40 | concentration at 30 min [7]: 5740 ng/g
CNC1(c2ccccc2Cl)CCCCC1=O (stereo not shown) [Ketamine, ketamine, reference compound] | 29.2 | 35.4 ± 7.9 | 29.2 ± 4.6 | – | – | – | – | – | – | – | – | – | – | – | – | – | – | – | – | 1 h inhibition rate (C57 mice [4]; control given intraperitoneally 10 mg/kg, 1 h): 22.7 ± 0.2%; 24 h inhibition rate (C57 mice [4]; control given intraperitoneally 10 mg/kg, 24 h): 25.1 ± 2.7%; Brain tissue concentration ([6]; 30 mg/kg intraperitoneally, literature (Journal of Pharmaceutical and Biomedical Analysis, 2018, 148, 288-297)): 1929 ng/g
